Article PMC6273344, “Biochemical Characteristics of Three Laccase Isoforms from the Basidiomycete Pleurotus nebrodensis” (Molecules, 2015)
Counter-ions that a name gives are not always drawn.

Key:
Conditions in all cases: McIlvaine buffer at optimum pH (3.0); ABTS 125-5000 uM; O2 as co-substrate
Lac3 = tested on: Lac3
Lac1 = tested on: Lac1
Lac2 = tested on: Lac2

CCn1c(=NN=c2sc3cc(S(=O)(=O)O)ccc3n2CC)sc2cc(S(=O)(=O)O)ccc21 [ABTS, 2,2′-azino-bis(3-ethylbenzothiazoline-6-sulfonic acid) diammonium salt]
Km (Lac3): 104 µM | Km (Lac1): 160 µM | Km (Lac2): 550 µM
